# “Also recorded” adds a separate entry of the source.
# Assays:
# [1] = system: rat vaginal smooth muscle tissue (intact/sham rats); experiment: EFS-induced contraction of vaginal strips from intact/sham rats, isolated organ bath, isometric tension
# Source text: (§1) The following in vitro methodology was utilized to examine the concentration-dependent response of rat vaginal tissue, both proximal and distal, to CBD following contraction by electrical field stimulation (similar to efferent neurostimulation in vivo)
# (§2) Female rats either intact (n=6) or bilaterally oophorectomized (OVX) (n=6 rats); the animals were euthanized 6 weeks post OVX and vagina dissected. Then, the vagina was cut into 2 halves, proximal and distal, and 4 strips max per region cut in circular direction were prepared and mounted as shown in FIG. 1.
# (§3) The strips were excised from the tissue samples and connected to force transducers for isometric tension recording. Organ baths were filled with Krebs buffer maintained at 37° C. and bubbled with 95% O2 and 5% CO2, pH 7.4.
# (§4) Female rats without (n=6) prior bilateral oophorectomies were euthanized and the proximal and distal vaginal tissue was harvested and suspended in a classic organ bath infused at a physiological temperature, pH, and oxygen level. […] This was also true regardless of whether the tissue was from the proximal or distal vaginal tissue (FIG. 2(A-E)).
# [2] = system: rat vaginal smooth muscle tissue (OVX rats); experiment: EFS-induced contraction of vaginal strips from oophorectomized (OVX) rats, isolated organ bath, isometric tension
# Source text: as §1, §2, §3
# as §4, with “with” for “without”, “3(A-E)).” for “2(A-E)).”
# [3] = subcutaneous injection 45 minutes prior to sexual activity; cited from earlier work
compound,measurement,setting,value
"C=C(C)[C@@H]1CCC(C)=C[C@H]1c1c(O)cc(CCCCC)cc1O [CBD, (−)-trans-cannabidiol]",relaxation (inhibition of EFS-induced contraction) of vaginal strips,"[1]; intact/sham (non-oophorectomized) rats, proximal or distal tissue, CBD 1, 10 and 100 μg/ml, EFS 1 Hz to 48 Hz, vs vehicle",dramatic and significant dose-response relaxation; also recorded: significant relaxant effect
same,relaxant effect on distal vaginal smooth muscle tissue,"[1]; intact/sham rat, distal, FIG. 4B","statistically significant, unexpected, peripheral, dose-dependent pharmacological relaxant effect"
same,relaxant effect on proximal vaginal smooth muscle tissue,"[1]; intact/sham rat, proximal, FIG. 4A","statistically significant, unexpected, peripheral, dose-dependent pharmacological relaxant effect"
same,relaxant effect on distal vaginal smooth muscle tissue,"[2]; OVX rat, distal, FIG. 5B","statistically significant, unexpected, peripheral, dose-dependent pharmacological relaxant effect"
same,relaxant effect on proximal vaginal smooth muscle tissue,"[2]; OVX rat, proximal, FIG. 5A","statistically significant, unexpected, peripheral, dose-dependent pharmacological relaxant effect"
same,relaxation (inhibition of EFS-induced contraction) of vaginal strips,"[2]; oophorectomized (OVX) rats, proximal or distal tissue, CBD 1, 10 and 100 μg/ml, EFS 1 Hz to 48 Hz, vs vehicle",dramatic and significant dose-response relaxation; also recorded: significant relaxant effect
CCCC[C@H](NC(C)=O)C(=O)N[C@H]1CC(=O)NCCCC[C@@H](C(=O)O)NC(=O)[C@H](Cc2c[nH]c3ccccc23)NC(=O)[C@H](CCCN=C(N)N)NC(=O)[C@@H](Cc2ccccc2)NC(=O)[C@H](Cc2cnc[nH]2)NC1=O [bremelanotide],"side-effect: nausea, incidence",[3],40%

# Reference: US20220401381A1, “PERIPHERALLY ACTING CANNABIDIOL (CBD)-CONTAINING COMPOUNDS AND USES THEREOF FOR ENHANCING FEMALE SEXUAL FUNCTION OR TREATING FEMALE SEXUAL DISORDERS” (Vella Bioscience, Inc., priority 2019, published 2022)
